Source: publication PMC9848257, “Design and synthesis of novel rigid dibenzo[b,f]azepines through ring closure technique as promising anticancer candidates against leukaemia and acting as selective topoisomerase II inhibitors and DNA intercalators” (Journal of Enzyme Inhibition and Medicinal Chemistry, 2023)

Assays:
[1] = Cytotoxic effect against normal cell line; type: cell-based; settings: human, normal cell line PSC-800-011; read-out: Cytotoxicity IC50, PSC-800-011
Procedure: Following, the cytotoxic effect of compound 5e against a normal cell line, PSC-800–011, was also assigned to evaluate the selectivity of the compound towards the cancer cell lines. […] However, the selectivity index (SI) of compound 5e was also calculated to confirm its selectivity. It was known that any sample that has an SI value higher than 3 will be considered to have high selectivity.

[2] = Liver enzymes (ALT, AST) in SEC-bearing mice; type: in vivo, Swiss albino mice; settings: 6 mg/Kg B.W., IP
Procedure: (§1) The full methodology of tumour induction, treatments, and blood measurements was carried out according to the described details in the supporting information (SI 5). Moreover, the experimental protocol was approved by the Research Ethics Committee at Suez Canal University (Approval number REC139/2022, Chemistry Department, Faculty of Science, Suez Canal University). […]
(§2) that were I.P. implanted into each normal mouse. SEC cells (1 × 10^6 tumor cells/mouse) were implanted subcutaneously into the right thigh of the hind limb.
(§3) The experimental animals were randomly divided into four groups. Group 1 served as the normal saline control. Group 2 served as the SEC control (1 × 10^6 cells/mouse). Group 3 served as the compound-treated group (6 mg/kg B.Wt., I.P.). Group 4 received the standard anticancer drug of […]
survival were recorded daily until the 24th day in both treated and control groups. At the end of experiment, the blood of each group was collected under light anesthesia for estimation of hematological and biochemical assays. The anesthetized animals were then sacrificed for evaluation of the antitumor activity and histopathological examination. […]
At the end of the experiment, animals from different groups were sacrificed, and blood samples were collected for determination of liver enzymes ALT, AST levels. Activities of aspartate aminotransferase (AST) and alanine aminotransferase (ALT) were evaluated using commercial kits (ELITech clinical systems, France). […]

[3] = tested on: Solid Ehrlich carcinoma (SEC); assay: In vivo anti-tumour activity in SEC-bearing mice; parameters: species or system Swiss albino mice; settings: 6 mg/Kg B.W., IP
Procedure: as §1
SI 5.1. Animals and tumor cell line
Adult female Swiss albino mice purchased from Theodor Bilharzia Research Institute, Giza, Egypt, with an average body weight of (18-23) g was used. Mice were housed under constant conditions of 12 h light/dark cycle in a […], with free access to standard laboratory mice food and water.
All procedures related to care and maintenance of the animals were performed according to the international guiding principles for animal research and approved by Faculty of Science, Suez Canal University bioethics and animal ethics committee (Approval number REC-01-2022).
Solid Ehrlich carcinoma (SEC) were got from the National Cancer Institute (Cairo University, Egypt). The tumor cell line was proliferated in mice through serial intraperitoneal (I.P.) transplantation of a volume of 0.2 mL physiological saline contains 1 × 10^6 viable cells for 24 h. SEC cells were collected 7 days after I.P. implantation. The harvested cells were diluted with saline to obtain a concentration of 5 × 10^6 viable SEC cells/mL. A volume of 0.2 mL saline contains 1 × 10^6 SEC cells […]
as §2, §3
survival were recorded daily until the 24th day in both treated and control groups. At the end of experiment, the blood of each group was collected under light anesthesia for estimation of hematological and biochemical assays. The anesthetized animals were then sacrificed for evaluation of the antitumor activity and histopathological examination.
SI 5.2. Antitumor potentiality
It includes tumor volume, weight, and tumor inhibition ration (TIR%). Time interval measurements of tumor volume using digital Vernier caliper (Tricle Brand, Shanghai, China). Measure tumor length and width using clipper and then calculate tumor volume using formulations V = (L x W x W)/2, where V is tumor volume, W is tumor width, L is tumor length. While TIR% was calculated according to the following equation: […]. […]

[4] = tested on: leukaemia SR cells; assay: Anti-proliferative effect against SR cell line (MTT assay); type: cell-based; settings: Homo sapiens; leukaemia SR cells; unit as in head of Table 3; read-out: Cytotoxicity IC50, SR
Procedure: The anti-proliferative effect of the 5e counterpart against the SR cell line was estimated using the MTT assay protocol.
Depending on the previous results, the cytotoxic activity of the designed candidate 5e was then evaluated against leukaemia SR cells. Doxorubicin was also evaluated as a reference drug.

## COc1cccc2c1C(=O)c1c(O)c3c(c(O)c1C2=O)C[C@@](O)(C(=O)CO)C[C@@H]3O[C@H]1C[C@H](N)[C@H](O)[C@H](C)O1 [Doxorubicin, reference compound]
[1]
  IC50: 12.8 ± 0.79 µM
[2]; SEC control 65.9 U/L
  ALT: 34.8 U/L
[2]; SEC control 71 U/L
  AST: 35.6 U/L
[3]; SEC control 226 mg
  Solid tumour mass: 82.3 mg
[3]; SEC control 80.6 mm^3
  Tumour volume: 27.5 mm^3
[4]
  IC50: 3.78 ± 0.14 µM
